Experiments:
[1] = system: HDAC; conditions: cited from earlier work; for concentration at which HDAC is inhibited: literature statements, in vitro or in vivo for SAHA, SBHA, CBHA
[2] = system: Zucker diabetic fatty rats; assay: Zucker diabetic rat model, 42 days oral dosing; assay type: in vivo; conditions: for daily body weights / food intake: 200 mg/kg orally twice a day, 43 days, vs vehicle and other groups; for fasting serum glucose levels: day 8, 15, 22, 29, 36 and 43, 200 mg/kg orally twice a day
Method: Groups of 8 rats were used for each group (6 weeks old, 190±10 grams). […] Blood samples were collected from the retro-orbital sinus 35 minutes before glucose load (Fasting glucose) and 90 minutes post oral glucose load. Serum glucose levels were determined by means of a Hitachi Model 750 Automatic Analyzer.

[3] = system: male C57BL/6 mice; assay: Cold test (body temperature at 4° C.) in DIO mice; assay type: in vivo; conditions: 400 mg/kg/day coadministered with a high fat diet, p<0.05
Method: During week 18, a cold test is performed on all animals by measuring body temperature of animals exposed to 4° C.

[4] = system: male C57BL/6J mice; assay: Circadian (spontaneous locomotor) activity in DIO mice; assay type: in vivo; conditions: 400 mg/kg/day, high fat diet
Method: During week 13, circadian activity of groups 3, 4 and 5 (high fat diet fed mice) is studied during a period of […]. A circadian activity measurement is performed on groups […]. Spontaneous locomotor activity is measured using individual boxes, each composed with a sliding floor, a detachable cage, and equipped with infra-red captors allowing measurement of ambulatory locomotor activity and rears. Boxes are linked to a computer using an electronic interface (Imetronic, Pessac, France). Mice are tested for 32 h in order to measure habituation to the apparatus as well as nocturnal and diurnal activities. The quantity of water consumed is measured during the test period using an automated lickometer.

[5] = system: mice; assay: Transmission electron microscopy of gastrocnemius muscle and brown adipose tissue of DIO mice; assay type: in vivo; conditions: 16 weeks
Method: Transmission electron microscopy was carried out using standard techniques as described below. The mitochondria can be seen as the darker oblong Z lines crossing the I lines.
Transmission electron microscopy was carried out using standard techniques as described below. Fat droplets may be observed at either magnification as white or light gray droplets and mitochondria can be observed at the higher magnification as roundish striated structures.
Transmission Electronic Microscopy/Preparation of Samples: The biopsies of gastrocnemius muscle and brown adipose tissue were cut in pieces of 1 mm and fixed immediately after collection in Kamovsky fixative (glutaraldehyde in cacodylate buffer) and kept at 4° C. without time limitation. The second step is the post-fixation with 1% osmium tetraoxide in 0.1M cacodylate buffer for 1 h at 4° C. Tissues were then dehydrated through successive baths of graded alcohol followed by a propylene oxide bath, and then a treatment with a propylene oxide and resine mix before to be embedded in a pure epoxy resine (araldite, Epon 812) which becomes solid after 48 h at 60° C. Semithin sections were cut at 2 μm and stained with toluidine blue, and histologically analysed by light microscopy. Ultrathin sections were cut at 70 nm and contrasted with uranyl acetate and lead citrate, and examined with a Philips 208 electron microscope.

[6] = system: mice; assay: Succinate dehydrogenase staining of brown adipose tissue and muscle of DIO mice; assay type: in vivo; conditions: 16 weeks, HF+R400 vs HF diet
Method: Succinate dehydrogenase is a marker of mitochondrial activity and produces a dark stain in the photos. Tissues were collected and immediately frozen in methylbutane, then kept at −80° C. prior to sectioning and staining. Succinate Dehydrogenase staining was carried out using standard procedures and commercially available reagents (see e.g., Reichmann H and Wildenauer D, Histochemistry, 96: 251-3 (1991)).

[7] = system: mice; assay: Serum biochemical analysis in DIO mice; assay type: in vivo; conditions: 16 weeks, high fat plus 400 mg/kg/day
Method: Diet induced obesity was established in mice as described above in Example 1.
The values shown are based on an average of measurements from 10 animals for each dietary group. Levels of total cholesterol, HDL-cholestrol, LDL-cholesterol, triglycerides, free fatty acids, aspartate aminotransferase […], alanine aminotransferase (ALAT), and alkaline […] (ALP) were determined using standard procedures. ASAT, ALP and ALAT were measured by kinetic UV and colour tests using methods based on the recommendations of the ‘International Federation for Clinical Chemistry’ (IFCC) on an Olympus AU-400 automated laboratory work station. AST was quantified using the OSR6109 reagent system which is based on the activity of AST that catalyzes the transamination of aspartate and 2-oxoglutarate to L-glutamate and oxalacetate. […] The decrease in absorbance due to the consumption of NADH is measured at […] and is proportional to the AST activity in the sample. ALT was quantified using the OSR6107 reagent system which is based on the activity of ALT that transfers the amino group from alanine to 2-oxoglutarate to form pyruvate and glutamate. […] As with the AST measurement, consumption of NADH is measured at […] and is proportional to the amount of ALT activity in the sample. ALP is measured by determining the rate of conversion of p-nitro-phenyl phosphate to p-nitrophenol (pNP). […]

[8] = system: PGC1 alpha; assay: Immunoblot of PGC1 alpha acetylation in gastrocnemius muscle nuclear extracts; assay type: in vivo, mice; conditions: high fat diet plus 400 mg/kg resveratrol vs high fat diet, 15 weeks
Description: Following immunoprecipitation with a PGC 1 alpha antibody (Santa Cruz Biotechnology, cat #SC-13067), secondary western blots were probed with either a acetylated lysine specific monoclonal (Cell Signaling Technology, Cat #9441; top left panel) or a PGC1alpha antibody (Santa Cruz Biotechnology, cat #SC-13067; lower left panel). Exposures were scanned and the acetylation status of PGC1alpha compared to total PGC1alpha of animals on either the HF or HF+[…] is shown in the right hand panel.

[9] = system: mice; assay: Hematoxylin and eosin staining of tissue sections of DIO mice; assay type: in vivo; conditions: 16 weeks, high fat plus 400 mg/kg/day vs control and high fat diets
Method: After collection, tissues were fixed in 4% paraformaldehyde, processed and embedded in paraffin prior to sectioning (10 microns) and staining. Tissue processing, paraffin embedding, tissue sectioning and hematoxylin and eosin staining of histological sections were carried out using standard procedures and commercially available materials (see e.g., McManus J. F. A. and Mowry, R. W., Staining Methods. Histologic and Histochemcial, Harper and Row, New York 1960; Luna L. G., Hitopathological Methods and Color Atlas of Special Stains and Tissue Artifacts, Johnson Printers, Downers Grove, Ill. 1992; Gabe M., Techniques histologiques. Masson, Paris 1968; and world wide web at statlab.com).

[10] = system: male C57BL/6J mice; assay: Diet induced obesity (DIO) mouse model: body weight, food intake, body fat content (dexa scanning); assay type: in vivo; conditions: resveratrol 400 mg/kg/day co-administered with a high fat diet
Method: The mice undergo an extensive phenotypic and molecular analysis to define the regulatory pathways affected by Sirt-1 activation.
(§1) In this long-term study, 50 male C57BL6J mice (5 weeks of age) are analyzed during a period of 18 weeks.
During the entire study, body weight and food intake
are monitored twice weekly.
During week 1, body composition is analyzed, for all groups, by dual energy X-ray absorptiometry (dexascan).
During week 12, body weight composition is again analysed by dexascan for all groups.
Diet. The standard rodent chow diet is obtained from UAR and the high fat diet is obtained from Research Diet. Mice are fed, either with chow diet (16% protein, 3% fat, 5% fiber, 5% ash) or with high fat diet (26.2% protein, 26.3% carbohydrate, 34.9% fat). Resveratrol is mixed with either powdered chow diet or powdered high fat diet and pellets are reconstituted. Control groups receive pellets as provided by the company. Due to the consistency of the high fat diet, it is not necessary to add water to mix it with the resveratrol. […]
Determination of body fat content by Dexa scanning. […] Bone mineral density (BMD in g/cm^2) and body composition are determined by using the PIXIMUS software (version 1.4x, GE Medical Systems).
The bottom panels show comparisons of body fat content, as analyzed by dexa scanning, at […] of treatment for mice in the four dietary groups. […]

[11] = system: high fat diet fed C57BL/6J mice; assay: Intraperitoneal and oral glucose tolerance tests in DIO mice; assay type: in vivo; conditions: 400 mg/kg/day, IPGTT and OGTT 2 g glucose/kg
Method: During week 10, glucose tolerance is determined by subjecting all the animals to an intraperitoneal glucose tolerance test (IPGTT). Animals are fasted for 12 h prior to this test. During week 16, glucose tolerance is analysed by performing an oral glucose tolerance test (OGTT) on a subset of animals (n=5) of groups 3, 4 and 5, and an intraperitoneal insulin sensitivity test (IPIST) on another subset of animals (n=5). During these experiments, blood is also collected to analyze insulin levels. Animals are fasted 12 h prior these tests. Intraperitoneal glucose tolerance test—Oral glucose tolerance test. IPGTT and OGTT are performed in mice which are fasted overnight (12 h). Mice are either injected intraperitoneally (IPGTT) or orally gavaged (OGTT) with a solution of 20% glucose in sterile saline (0.9% NaCl) at a dose of 2 g glucose/kg body weight. Blood is collected from the tail vein, for glucose and insulin monitoring, prior to and at 15, 30, 45, 75, 90, 120, 150, 180 min after administration of the glucose solution. The incremental area of the glucose curve is calculated as a measure of insulin sensitivity, whereas the corresponding insulin levels indicate insulin secretory reserves.

[12] = system: male C57BL/6J mice; assay: Energy expenditure by indirect calorimetry (oxygen consumption) in DIO mice; assay type: in vivo; conditions: 400 mg/kg/day co-administrated with a high fat diet
Method: Nocturnal energy expenditure of groups 1, 3 and 5 (chow diet, high fat diet and high fat diet 400 mg) is measured by indirect calorimetry. Energy expenditure. Energy expenditure is evaluated through indirect calorimetry by measuring oxygen consumption with the Oxymax apparatus (Columbus Instruments, Columbus, Ohio) during 12 h. This system consists of an open circuit with air coming in and out of plastic cages (one mouse per cage). Animals are allowed free access to food and water. A very precise CO2 and O2 sensor measures the difference in O2 and CO2 concentrations in both air volumes, which gives the amount of oxygen consumed in a period of time given that the air flow of air coming in the cage is constant. The data coming out of the apparatus are processed in a connected computer, analyzed, and shown in an exportable Excel file. The values are expressed as ml.kg^−1.h^−1, which is commonly known as the VO2.

[13] = Tolerability of resveratrol as a food additive; assay type: in vivo
Method: as §1

[14] = high fat diet plus 400 mg/kg/day resveratrol

## O=C(/C=C/c1cccc(C(=O)NO)c1)NO [CBHA, m-carboxy-cinnamic acid bishydroxamic acid]
[1]
  concentration at which HDAC is inhibited: micromolar concentration or lower

## C/C=C1\NC(=O)[C@H]2CSSCC/C=C/[C@H](CC(=O)N[C@H](C(C)C)C(=O)N2)OC(=O)[C@H](C(C)C)NC1=O [Depsipeptide]
[1]
  concentration at which HDAC is inhibited: micromolar concentrations

## CN(C)C(=N)N=C(N)N [metformin, reference compound]
[2]
  daily body weights: no statistical difference
  food intake: no statistical difference
  fasting serum glucose levels: no difference

## Oc1ccc(/C=C/c2cc(O)cc(O)c2)cc1 [resveratrol, 3,5,4′-Trihydroxy-trans-stilbene]
[3]
  adaptive thermogenesis (body temperature during 6 h cold test): enhances adaptive thermogenesis
[4]
  circadian locomotor activity: significantly diminishes the circadian locomotor activity
[5]; HF+R400 vs control or high fat diets
  mitochondria in gastrocnemius muscle (non-oxidative fibers), transmission electron microscopy: more mitochondria
[5]; [14]
  fat droplets in brown adipose tissue, transmission electron microscopy: smaller fat droplets
  mitochondria in brown adipose tissue, transmission electron microscopy: more mitochondria
[6]
  succinate dehydrogenase staining (marker of mitochondrial activity), brown adipose tissue: significantly higher
  succinate dehydrogenase staining (marker of mitochondrial activity), gastrocnemius: significantly higher
  succinate dehydrogenase staining, soleus: little change
[7]
  serum biochemical markers (total, HDL and LDL cholesterol, triglycerides, free fatty acids, ASAT, ALAT, ALP): fell within the normal range
[8]
  PGC1 alpha deacetylation: increases PGC1 alpha deacetylation
[9]
  histological changes (liver, epididymal WAT, BAT, gastrocnemius muscle; hematoxylin and eosin): few histological changes
[2]
  daily body weights: no statistical difference
  food intake: no statistical difference
  fasting serum glucose levels: no difference
[10]
  diet-induced obesity: prevents diet-induced obesity
[11]
  glucose tolerance: increases glucose tolerance
[12]
  energy expenditure: increases energy expenditure
[13]
  food aversion: does not cause food aversion
  tolerability: well tolerated

## depudecin
[1]
  concentration at which HDAC is inhibited: micromolar concentrations

## trichostatin A [TSA]
[1]; Yoshida et al. (1990)
  inhibition of mammalian HDAC: potent inhibitor

From US20070149466A1, “Methods and related compositions for treating or preventing obesity, insulin resistance disorders, and mitochondrial-associated disorders” (priority 2005, published 2007)
